Data set [1] addresses T1, dexamethasone induction of TAT in HTC cells (Rattus norvegicus, UniProt P06536).
T1 construct: endogenous in cells; host or cells: HTC (rat hepatoma tissue culture) cells, whole, monolayer or spinner cultures
T1 sequence (P06536 1-795): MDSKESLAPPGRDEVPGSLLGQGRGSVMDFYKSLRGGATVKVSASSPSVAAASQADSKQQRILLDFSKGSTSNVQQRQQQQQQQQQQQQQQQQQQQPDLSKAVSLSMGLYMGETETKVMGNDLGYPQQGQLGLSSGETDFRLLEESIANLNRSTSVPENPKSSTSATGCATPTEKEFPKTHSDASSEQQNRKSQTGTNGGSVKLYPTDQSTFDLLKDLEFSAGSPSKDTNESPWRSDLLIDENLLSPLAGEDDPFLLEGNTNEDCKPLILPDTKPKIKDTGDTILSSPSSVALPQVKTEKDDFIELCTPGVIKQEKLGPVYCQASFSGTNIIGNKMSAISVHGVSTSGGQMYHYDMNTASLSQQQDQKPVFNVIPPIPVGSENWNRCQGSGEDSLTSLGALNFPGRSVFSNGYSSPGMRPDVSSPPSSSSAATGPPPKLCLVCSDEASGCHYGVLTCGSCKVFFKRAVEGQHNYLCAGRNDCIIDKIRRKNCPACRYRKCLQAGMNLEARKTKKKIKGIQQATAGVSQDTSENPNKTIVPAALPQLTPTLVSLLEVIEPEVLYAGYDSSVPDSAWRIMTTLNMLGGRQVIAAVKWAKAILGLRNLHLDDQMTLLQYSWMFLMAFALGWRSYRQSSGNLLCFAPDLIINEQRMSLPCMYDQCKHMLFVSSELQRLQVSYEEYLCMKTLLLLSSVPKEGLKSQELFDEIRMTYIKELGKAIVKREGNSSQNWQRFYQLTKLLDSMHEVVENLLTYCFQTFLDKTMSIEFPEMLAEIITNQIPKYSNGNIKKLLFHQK
The data set can be described thus: TAT induction after pre-treatment of HTC cells and washing (reversibility). In kind it is cell-based. To be noted: for reversal of pre-incubation effect on dexamethasone induction of TAT by washing the cells: pre-incubation overnight, wash, then 2×10^-8 M dexamethasone. As for the experimental part:
One approach to establishing CM as an irreversible inhibitor of TAT induction by glucocorticoids is to determine whether the effects of CM can be reversed by washing the cells.
After incubation at 37°/15 1/2 hrs, ~6×10^7 cells were centrifuged at 600 xg/10 min/22°and resuspended in 200 ml of "conditioned" medium that had also been "incubated" at 37°/15 1/2 hrs. After a second centrifugation, each cell pellet was again resuspended in 210 ml of "conditioned" medium. […] The cells in Wheaton bottles were incubated in a rotating water bath (37°/175 rpm) with 3 ml aliquots being removed at various time points for protein and TAT determinations in the usual manner.

The target of data set [2] is T1, dexamethasone induction of TAT in HTC cells. Nature of the data set: inhibition of dexamethasone induction of TAT activity in whole HTC cells. In kind it is cell-based. As for the experimental part:
(§1) Ir (nujol) ~3400. 1733, 1659, 1359, 1170 cm^-1. […] 59.98; H. 7.32; S. 7.28.
Alternatively, CM could be a anti-inducer, or inhibitor of glucocorticoid action. […] After the usual incubation (18 hrs/37°) and work-up, the specific enzyme activity of TAT was plotted against the concentration of that steroid present in varying amounts. The range of each duplicate determination is shown by error bars when it exceeds the area of the data points. The basal level of TAT activity is indicated by the dashed line.

The target of data set [3] is T2, HTC cell glucocorticoid receptors (Rattus norvegicus, UniProt P06536).
T2 construct: crude receptors from a well characterized line of rat hepatoma tissue culture (HTC) cells; endogenous in cells; host or cells: HTC (rat hepatoma tissue culture) cells, crude cytosol
T2 sequence (P06536 1-795): T1 sequence (P06536 1-795)
Nature of the data set: cell-free exchange assay (3H-dexamethasone exchange binding to pre-formed complexes). To be noted: for effect of pre-incubation of steroid-free receptors on subsequent exchange-binding of 3H-dexamethasone: cell-free. As to the method: as §1
To examine this possibility in more detail, a determination was made as to whether the cell-free binding of CM to HTC cell receptors is reversible. Using the previously described exchange assay, crude HTC cell receptors were incubated with enough cortisol, or CM, to occupy ~75% of the receptor based on data of FIG. 1. After ~3 hrs, activated charcoal was added to remove free steroid and to inactivate steroid-free receptors. An excess of ^3 H-dexamethasone was then added to exchange-bind to the previously formed receptor-steroid complexes. […] Thus CM is an irreversible inhibitor of one aspect of glucocorticoid action in broken cells, i.e., the ability of glucocorticoids to exchange-bind to receptor-glucocorticoid complexes.
FIG. 5 is based on data obtained in studying inhibition of ^3 H-dexamethasone exchange binding to pre-formed complexes by cortisol-21-mesylate. Using the previously described exchange assay, crude HTC cell receptors were pre-incubated with 6×10^-8 M cortisol or 1.35×10^-6 M CM for 2.8 hrs at 0° (final protein concentration=7.0 mg/ml). After addition of activated charcoal to remove free steroid, and to inactivate steroid-free receptors, followed by centrifugation to pellet the activated charcoal, the pre-incubated cytosols were adjusted to 1.9×10^-8 M ^3 H-dexamethasone ±1.1×10^-5 M ^1 H-dexamethasone. After subsequent incubation for the indicated time, activated charcoal was again added to determine the amount of specifically bound ^3 H-dexamethasone (=total-non-specific binding) that was formed by exchange binding in cortisol or CM pre-incubated cytosols. For comparison, the amount of non-specific binding in cortisol or CM pre-incubated receptor solutions is shown in dashed lines.

Data set [4] addresses T2, HTC cell glucocorticoid receptors. Nature of the data set: cell-free competition assay with 3H-dexamethasone, crude HTC cell receptors. In kind it is binding.
Source text: as §1
In general, the introduction of bulky substituents on the C21 of glucocorticoids results in derivatives with a reduced affinity for glucocorticoid receptors as described, for example, in Failla, D. et al., Proc. Nat. Acad. Sci. USA, 72, 3849-3852 (1975). […] The data for FIG. 1 was obtained from a determination of relative affinities of cortisol and cortisol-21-mesylate for HTC cell glucocorticoid receptors in a cell-free competition assay. Duplicate crude HTC cell receptor solutions were incubated for 3 hrs at 0° with 5.6×10^-9 M ^3 H-dexamethasone and varying concentrations of cortisol, or CM (final protein concentration=5.1 mg/ml). A 500 fold excess of ^1 H-dexamethasone was used to determine the level of non-specific binding of ^3 H-steroid. The average specifically bound ^3 H-dexamethasone in the presence of varying concentrations of cortisol or CM was plotted as % of the uncompeted control (variation less than ±4%).

For data set [5], the system named is tyrosine aminotransferase (TAT) induction in HTC cells. The data set can be described thus: induction of tyrosine aminotransferase (TAT) in whole HTC cells. The class given is cell-based, rat.
Source text: as §1
HTC cells display several biological responses to glucocorticoids. Tyrosine aminotransferase (TAT) is one specific, glucocorticoid inducible enzyme in HTC cells; and previous extensive studies argue that TAT induction in HTC cells is a primary response to glucocorticoids that is initiated by the binding of steroid to a specific, cytoplasmic receptor. […] The basal level of TAT activity is shown by the dashed line.

A further data set concerns rats. The data set can be described thus: experiment with rats, daily intraperitoneal injections. The class given is in vivo, rat. The text has this: In the experiments and uses of CM and DM described above, the toxicity of either compound was negligible. […] In order to be more useful in animals and people, two approaches can be used to reduce this toxicity. […] Second, alternative routes of administration (e.g., oral, intravenous, intramuscular and subcutaneous) might be less toxic.

The nature of data set [6]: cell toxicity in HTC cells (protein content, cell number, trypan blue exclusion). To be noted: rat.
A short description of a further data set: in vitro. To be noted: rat, htc cells.

“And” between values parts separate entries of the source, which are not always exact repeats. Identical values can stand only once. “Also recorded” adds a separate entry of the source.

This note sets out measurements from patent US4296206A, “Irreversible anti-glucocorticoids” (United States of America, priority 1980, dated 1981).

As for `C[C@@H]1C[C@H]2[C@@H]3CCC4=CC(=O)C=C[C@]4(C)[C@@]3(F)[C@@H](O)C[C@]2(C)[C@@]1(O)C(=O)COS(C)(=O)=O` [DM, 16α-methyl-9α-fluoro-1,4-pregnadiene-11β, 17α, 21-triol-3, 20-dione-21-methane-sulfonate], in data set [1], the “reversal of pre-incubation effect on dexamethasone induction of TAT by washing the cells” value is given as “cannot be reversed by washing the cells”. In addition, in data set [2], the “inhibition of TAT induction by dexamethasone in whole cells” value was “potent inhibitors”. The “effect of pre-incubation of steroid-free receptors on subsequent exchange-binding of 3H-dexamethasone” value in data set [3] is given as “inhibits”. In addition, the “cell-free affinity for the glucocorticoid receptors of HTC cells” value in [4] was “low but significant”. Further, the “affinity for cell free receptors, fold higher than CM” value in [4] (cell free receptors) is “approximately 10 fold”. In addition, in [5] (Rattus norvegicus, whole HTC cells, read-out: induction of TAT in HTC cells, % of full induction), the Emax is about 25%.

Take `C[C@]12CCC(=O)C=C1CC[C@@H]1[C@@H]2[C@@H](O)C[C@@]2(C)[C@H]1CC[C@]2(O)C(=O)COS(C)(=O)=O` [CM, 4-pregnene-11β, 17α, 21-triol-3, 20-dione-21-methanesulfonate]: in [1] (24 hrs after wash), the “magnitude of TAT induction 24 hrs after the wash procedure in pre-treated, post-dexamethasone treated cells” value was “significantly reduced; also recorded: only partial induction”. The “appearance of TAT in pre-treated cells, delay after TAT induction in EtOH or progesterone pre-treated cells” value in data set [1] (average of three experiments) was 2.7 h. In addition, the “time without TAT induction after the wash procedure in pre-treated, post-dexamethasone treated cells” value in [1] (pre-CM, post-dexamethasone) is ~ 8 hrs and 6-8 hrs. In addition, the “reversal of pre-incubation effect on dexamethasone induction of TAT by washing the cells” value in [1] is on record as “can not reverse; also recorded: cannot be reversed by washing the cells”. Besides, in the data set with HTC cells, the “effect on cell number” value is listed as “no effect” and the “effect on total cell protein” value is listed as ~1% increase to 6% decrease. Also, in [2], the Ki was about 100 nM and the “inhibition of TAT induction by dexamethasone in whole cells” value is “potent inhibitors”. Besides, in data set [2] (1.3×10^-6 M CM), the “TAT induction by 2×10^-8 M dexamethasone in the presence of the compound” value was “slight but significant increase in TAT” and the “TAT induction by 10^-7 M cortisol in the presence of the compound” value is on record as “unable to induce TAT”. The “duration of activity as anti-glucocorticoid in HTC cell cultures” value in [2] (37°, tissue culture) was ~ 18 hrs and 17-18 hrs. Further, in [2] (HTC cells), the “time after which no longer completely inhibitory (some inducibility of TAT returns)” value is “about 24 hr”. Besides, the “effect of pre-incubation of steroid-free receptors on subsequent exchange-binding of 3H-dexamethasone” value in data set [3] is “inhibits”. Further, the inhibition at 1.35 µM in data set [3] (pre-incubation 1.35×10^-6 M CM, ~3 hrs at 0°, read-out: reduction of the ability of receptors to exchange-bind 3H-dexamethasone) was about 75%. In data set [4], the “cell-free affinity for the glucocorticoid receptors of HTC cells” value is “low but significant”. The “affinity for glucocorticoid receptors, fold lower than that of the parent steroid cortisol” value in data set [4] (3 hrs at 0°, 5.6×10^-9 M 3H-dexamethasone, crude HTC cell receptors) is recorded as 15 fold. For the same compound, the “apparent Kd with HTC cell glucocorticoid receptors, times greater than the Kd of cortisol” value in [4] (CM) is reported as 15 times. In data set [5] (18 hrs at 37°), the “induction of TAT in whole HTC cells” value is “completely inactive; also recorded: does not induce TAT”. Moreover, the “anti-glucocorticoid activity in rats” value in the data set with rats (daily intraperitoneal injections of 10-50 mg per kilogram) is on record as “some anti-glucocorticoid activity”. Moreover, the “toxicity in rats at higher doses” value in the data set on rats (≥100 mg/kilogram, intraperitoneal) was “peritonitis and death”. In [6], this compound gave a cytotoxicity at 13 µM of 12% and a viability of 93 to 94%. The compound also returned a cytotoxicity in “in vitro” of 20%.
